Measured values: publication PMC5078989, “Targeted inhibition of the COP9 signalosome for treatment of cancer” (Nature Communications, 2016)

Test system: panel of cancer cell lines
Test: Cell viability (CellTiter-Glo) dose-response across cancer cell line panel;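 further: after 72 h compound incubation with CellTiter-Glo ATP readout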
Format: cell-based, human
Conditions: Homo sapiens
Description: Next, we explored the effect of CSN5 inhibition on the viability of cancer cells. To obtain a comprehensive picture, we generated dose–response curves with a CSN5 inhibitor across more than 500 cancer cell lines in a previously described standardized setting[47] (Supplementary Data 1).
A standardized CellTiter-Glo Assay (Promega #G7570) based on the quantification of ATP was applied according to the manufacturer's protocol to measure the amount of viable cells in culture. In brief, cells were seeded into 384-well plates at optimal density for each cell line. After 4 h, compounds were added at different concentrations in growth medium and incubated for another 72 h in a humidifying chamber at 37 °C and 5% CO2. […] EC50 values were calculated from the plot of percentage of inhibition versus inhibitor concentration using the nonlinear regression analysis software Origin 7.5SR6 (OriginLab Corp.).

NS(=O)(=O)OC[C@@H]1C[C@@H](n2ccc3c(N[C@H]4CCc5ccccc54)ncnc32)C[C@@H]1O [MLN4924]
EC50 (MOLT-16, MOLT-16): 134 nM | EC50 (MSTO-211H): 366 nM | EC50 (MV4-11, MV-4-11): 74.8 nM | EC50 (Malme-3M): 521 nM | EC50 (MeWo): 279 nM | EC50 (Mono-Mac-1, MONO-MAC-1): 233 nM | EC50 (NALM-6, NALM-6): 432 nM | EC50 (NB1, NB-1): 213 nM | EC50 (NB-4, NB-4): 60.9 nM | EC50 (NCI-H23, NCI-H23): 532 nM | EC50 (NCI-H28, NCI-H28): 10800 nM | EC50 (NCI-H82, NCI-H82): 89.6 nM | EC50 (NCI-H146, NCI-H146): 240 nM | EC50 (NCI-H211, NCI-H211): 2840 nM | EC50 (NCI-H322, NCI-H322): 767 nM | EC50 (NCI-H460, NCI-H460): 1460 nM | EC50 (NCI-H520, NCI-H520): 4070 nM | EC50 (NCI-H647, NCI-H647): 3220 nM | EC50 (NCI-H650, NCI-H650): 424 nM | EC50 (NCI-H661, NCI-H661): 174 nM | EC50 (NCI-H747, NCI-H747): 2320 nM | EC50 (NCI-H810, NCI-H810): 26.5 nM | EC50 (NCI-H838, NCI-H838): 259 nM | EC50 (NCI-H841, NCI-H841): 204 nM | EC50 (NCI-H1048, NCI-H1048): 79.9 nM | EC50 (NCI-H1299, NCI-H1299): 460 nM | EC50 (NCI-H1339, NCI-H1339): 67 nM | EC50 (NCI-H1341): 86.4 nM | EC50 (NCI-H1355, NCI-H1355): 700 nM | EC50 (NCI-H1373, NCI-H1373): 655 nM | EC50 (NCI-H1437, NCI-H1437): 2820 nM | EC50 (NCI-H1568, NCI-H1568): 680 nM | EC50 (NCI-H1581, NCI-H1581): 296 nM | EC50 (NCI-H1650, NCI-H1650): 5840 nM | EC50 (NCI-H1666, NCI-H1666): 2270 nM | EC50 (NCI-H1693, NCI-H1693): 541 nM | EC50 (NCI-H1703, NCI-H1703): 32.1 nM | EC50 (NCI-H1755, NCI-H1755): 3310 nM | EC50 (NCI-H1792, NCI-H1792): 7900 nM | EC50 (NCI-H1915, NCI-H1915): 1160 nM | EC50 (NCI-H1975, NCI-H1975): 2710 nM | EC50 (NCI-H2023, NCI-H2023): 376 nM | EC50 (NCI-H2030, NCI-H2030): 402 nM | EC50 (NCI-H2073, NCI-H2073): 399 nM | EC50 (NCI-H2087, NCI-H2087): 493 nM | EC50 (NCI-H2110, NCI-H2110): 238 nM | EC50 (NCI-H2122, NCI-H2122): 335 nM | EC50 (NCI-H2126, NCI-H2126): 15200 nM | EC50 (NCI-H2170, NCI-H2170): 335 nM | EC50 (NCI-H2172, NCI-H2172): 10700 nM | EC50 (NCI-H2228, NCI-H2228): 1330 nM | EC50 (NCI-H2286, NCI-H2286): 119 nM | EC50 (NCI-H2444, NCI-H2444): 413 nM | EC50 (NCI-H2452, NCI-H2452): 1810 nM | EC50 (NCI-H3255, NCI-H3255): > 30000 nM | EC50 (NCI-N87, NCI-N87): 2980 nM | EC50 (NO36): 873 nM | EC50 (NOMO-1, NOMO-1): 137 nM | EC50 (NUGC-3, NUGC-3): 929 nM | EC50 (OCI-AML-3, OCI-AML3): 93.3 nM | EC50 (OCI-AML-5, OCI-AML5): 240 nM | EC50 (OCI-Ly3, OCI-LY3): 112 nM | EC50 (OCI-M1, OCI-M1): 34.3 nM | EC50 (OUMS-23, OUMS-23): 970 nM | EC50 (OV56, OV56): 387 nM | EC50 (OVCAR-3, NIH:OVCAR-3): 304 nM | EC50 (OVCAR-4, OVCAR-4): 789 nM | EC50 (OVISE): 791 nM | EC50 (P3HR-1, P3HR-1): 283 nM | EC50 (P12-Ichikawa): 208 nM | EC50 (P31-FUJ, P31/FUJ): 285 nM | EC50 (PANC-1, PANC-1): 3930 nM | EC50 (PANC-03-27, Panc 03.27): 401 nM | EC50 (PC-3, PC-3): 570 nM | EC50 (PC-14, PC-14): 884 nM | EC50 (PE/CA-PJ34 (clone C12)): 86.1 nM | EC50 (PE/CA-PJ49): 297 nM | EC50 (PF-382, PF-382): 216 nM | EC50 (PK-1, PK-1): 1370 nM | EC50 (PK-45H): 1610 nM | EC50 (PK-59, PK-59): 2030 nM | EC50 (PL45, PL45): 305 nM | EC50 (PL-21, PL-21): 136 nM | EC50 (PLC-PRF-5, PLC/PRF/5): 3760 nM | EC50 (PSN1, PSN1): 1190 nM | EC50 (PaTu 8902, PA-TU-8902): 898 nM | EC50 (PaTu 8988s, PA-TU-8988S): 12200 nM | EC50 (PaTu 8988t, PA-TU-8988T): 888 nM | EC50 (Panc 02.03, Panc 02.03): 3430 nM | EC50 (Panc 04.03, Panc 04.03): 245 nM | EC50 (Panc1005, Panc 10.05): 368 nM | EC50 (RCM-1, RCM-1): 8840 nM | EC50 (RD): 722 nM | EC50 (RD-ES): 162 nM | EC50 (RERF-LC-AI): 437 nM | EC50 (RERF-LC-MS): 719 nM | EC50 (RKN): 342 nM | EC50 (RKO): 163 nM | EC50 (RMUG-S): 4130 nM | EC50 (RPMI 8402, RPMI-8402): 92 nM | EC50 (RPMI-7951, RPMI-7951): 1020 nM | EC50 (RT-112, RT-112): 851 nM | EC50 (RVH-421, RVH-421): 727 nM | EC50 (Rh41, RH-41): 32.4 nM | EC50 (SCC-25, SCC-25): 561 nM | EC50 (SCaBER): 3560 nM | EC50 (SEM): 487 nM | EC50 (SF8657): > 30000 nM | EC50 (SF-268, SF-268): 472 nM | EC50 (SH-4, SH-4): 147 nM | EC50 (SH-10-TC): 19100 nM | EC50 (SH-SY5Y): 561 nM | EC50 (SJRH30, SJRH30): 72.9 nM | EC50 (SK-CO-1, SK-CO-1): 258 nM | EC50 (SK-ES1, SK-ES-1): 177 nM | EC50 (SK-HEP1, SK-HEP-1): 384 nM | EC50 (SK-LU-1, SK-LU-1): 915 nM | EC50 (SK-MEL3, SK-MEL-3): 722 nM | EC50 (SK-MEL-2, SK-MEL-2): 370 nM | EC50 (SK-MEL-5, SK-MEL-5): 552 nM | EC50 (SK-MEL-28, SK-MEL-28): 603 nM | EC50 (SK-MEL-30, SK-MEL-30): 418 nM | EC50 (SK-MES-1, SK-MES-1): 725 nM | EC50 (SK-N-SH): 1140 nM | EC50 (SK-OV-3, SK-OV-3): 1440 nM | EC50 (SKM-1, SKM-1): 85.6 nM | EC50 (SKNBE2, SK-N-BE(2)): 334 nM | EC50 (SNB-19, SNB-19): 626 nM | EC50 (SNG-M): 249 nM | EC50 (SNU668, SNU-668): 1520 nM | EC50 (SNU878, SNU-878): 746 nM | EC50 (SNU-8): 552 nM | EC50 (SNU-16, SNU-16): 272 nM | EC50 (SNU-61): 19000 nM | EC50 (SNU-81): 175 nM | EC50 (SNU-175): 317 nM | EC50 (SNU-213): 2080 nM | EC50 (SNU-324): 685 nM | EC50 (SNU-349): 319 nM | EC50 (SNU-387, SNU-387): 3860 nM | EC50 (SNU-398, SNU-398): 294 nM | EC50 (SNU-410): 351 nM | EC50 (SNU-423, SNU-423): 620 nM | EC50 (SNU-449, SNU-449): 3540 nM | EC50 (SNU-475, SNU-475): 2310 nM
